Activity calls are given as the source filed them. The rule behind the calls is not given here.
Tested on: CCRIS mutagenicity, Ames/micronucleus/aberration tests
Test: CCRIS mutagenicity studies

C1COCCO1
mutagenic call (End Point: IN VITRO CHROMOSOMAL ABERRATIONS, Test System: CHINESE HAMSTER OVARY CELLS, Metabolic Activation: NONE): inactive; negative | mutagenic call (End Point: IN VITRO CHROMOSOMAL ABERRATIONS, Test System: CHINESE HAMSTER OVARY CELLS, Metabolic Activation: RAT, LIVER, S-9, AROCLOR 1254): inactive; negative | mutagenic call (End Point: IN VIVO MICRONUCLEUS, Test System: BONE MARROW ERYTHROCYTES, Species: MOUSE, Strain/Sex: CD-1/MALE, Route: ORAL (GAVAGE)): active; positive | mutagenic call (End Point: IN VIVO MICRONUCLEUS, Test System: HEPATOCYTES (BRDU-LABELING), Species: MOUSE, Strain/Sex: CD-1/MALE, Route: ORAL (GAVAGE)): active; positive | mutagenic call (Test System: AMES SALMONELLA TYPHIMURIUM, Strain/Indicator: TA98, Metabolic Activation: HAMSTER LIVER S-9, PHENOBARBITAL AND BETA-NAPHTHOFLAVONE (10%), Method: PREINCUBATION): inactive; negative | mutagenic call (Test System: AMES SALMONELLA TYPHIMURIUM, Strain/Indicator: TA98, Metabolic Activation: HAMSTER LIVER S-9, PHENOBARBITAL AND BETA-NAPHTHOFLAVONE (30%), Method: PREINCUBATION): inactive; negative | mutagenic call (Test System: AMES SALMONELLA TYPHIMURIUM, Strain/Indicator: TA98, Metabolic Activation: NONE, Method: GAS EXPOSURE): inactive; negative | mutagenic call (Test System: AMES SALMONELLA TYPHIMURIUM, Strain/Indicator: TA98, Metabolic Activation: NONE, Method: PREINCUBATION): inactive; negative | mutagenic call (Test System: AMES SALMONELLA TYPHIMURIUM, Strain/Indicator: TA98, Metabolic Activation: NONE, Method: STANDARD PLATE): inactive; negative | mutagenic call (Test System: AMES SALMONELLA TYPHIMURIUM, Strain/Indicator: TA98, Metabolic Activation: RAT LIVER S-9, PHENOBARBITAL AND 5,6-BENZOFLAVONE, Method: PREINCUBATION): inactive; negative | mutagenic call (Test System: AMES SALMONELLA TYPHIMURIUM, Strain/Indicator: TA98, Metabolic Activation: RAT LIVER S-9, PHENOBARBITAL AND 5,6-BENZOFLAVONE, Method: STANDARD PLATE): inactive; negative | mutagenic call (Test System: AMES SALMONELLA TYPHIMURIUM, Strain/Indicator: TA98, Metabolic Activation: RAT LIVER S-9, PHENOBARBITAL AND BETA-NAPHTHOFLAVONE (10%), Method: PREINCUBATION): inactive; negative | mutagenic call (Test System: AMES SALMONELLA TYPHIMURIUM, Strain/Indicator: TA98, Metabolic Activation: RAT LIVER S-9, PHENOBARBITAL AND BETA-NAPHTHOFLAVONE (30%), Method: PREINCUBATION): inactive; negative | mutagenic call (Test System: AMES SALMONELLA TYPHIMURIUM, Strain/Indicator: TA98, Metabolic Activation: RAT LIVER S-9, PHENOBARBITAL AND BETA-NAPHTHOFLAVONE, Method: GAS EXPOSURE): inactive; negative | mutagenic call (Test System: AMES SALMONELLA TYPHIMURIUM, Strain/Indicator: TA100, Metabolic Activation: HAMSTER LIVER S-9, PHENOBARBITAL AND BETA-NAPHTHOFLAVONE (10%), Method: PREINCUBATION): inactive; negative | mutagenic call (Test System: AMES SALMONELLA TYPHIMURIUM, Strain/Indicator: TA100, Metabolic Activation: HAMSTER LIVER S-9, PHENOBARBITAL AND BETA-NAPHTHOFLAVONE (30%), Method: PREINCUBATION): inactive; negative | mutagenic call (Test System: AMES SALMONELLA TYPHIMURIUM, Strain/Indicator: TA100, Metabolic Activation: NONE, Method: GAS EXPOSURE): inactive; negative | mutagenic call (Test System: AMES SALMONELLA TYPHIMURIUM, Strain/Indicator: TA100, Metabolic Activation: NONE, Method: PREINCUBATION): inactive; negative | mutagenic call (Test System: AMES SALMONELLA TYPHIMURIUM, Strain/Indicator: TA100, Metabolic Activation: NONE, Method: STANDARD PLATE): inactive; negative | mutagenic call (Test System: AMES SALMONELLA TYPHIMURIUM, Strain/Indicator: TA100, Metabolic Activation: RAT LIVER S-9, PHENOBARBITAL AND 5,6-BENZOFLAVONE, Method: PREINCUBATION): inactive; negative | mutagenic call (Test System: AMES SALMONELLA TYPHIMURIUM, Strain/Indicator: TA100, Metabolic Activation: RAT LIVER S-9, PHENOBARBITAL AND 5,6-BENZOFLAVONE, Method: STANDARD PLATE): inactive; negative | mutagenic call (Test System: AMES SALMONELLA TYPHIMURIUM, Strain/Indicator: TA100, Metabolic Activation: RAT LIVER S-9, PHENOBARBITAL AND BETA-NAPHTHOFLAVONE (10%), Method: PREINCUBATION): inactive; negative | mutagenic call (Test System: AMES SALMONELLA TYPHIMURIUM, Strain/Indicator: TA100, Metabolic Activation: RAT LIVER S-9, PHENOBARBITAL AND BETA-NAPHTHOFLAVONE (30%), Method: PREINCUBATION): inactive; negative | mutagenic call (Test System: AMES SALMONELLA TYPHIMURIUM, Strain/Indicator: TA100, Metabolic Activation: RAT LIVER S-9, PHENOBARBITAL AND BETA-NAPHTHOFLAVONE, Method: GAS EXPOSURE): inactive; negative | mutagenic call (Test System: AMES SALMONELLA TYPHIMURIUM, Strain/Indicator: TA1535, Metabolic Activation: HAMSTER LIVER S-9, PHENOBARBITAL AND BETA-NAPHTHOFLAVONE (10%), Method: PREINCUBATION): inactive; negative | mutagenic call (Test System: AMES SALMONELLA TYPHIMURIUM, Strain/Indicator: TA1535, Metabolic Activation: HAMSTER LIVER S-9, PHENOBARBITAL AND BETA-NAPHTHOFLAVONE (30%), Method: PREINCUBATION): inactive; negative | mutagenic call (Test System: AMES SALMONELLA TYPHIMURIUM, Strain/Indicator: TA1535, Metabolic Activation: NONE, Method: GAS EXPOSURE): inactive; negative | mutagenic call (Test System: AMES SALMONELLA TYPHIMURIUM, Strain/Indicator: TA1535, Metabolic Activation: NONE, Method: PREINCUBATION): inactive; negative | mutagenic call (Test System: AMES SALMONELLA TYPHIMURIUM, Strain/Indicator: TA1535, Metabolic Activation: NONE, Method: STANDARD PLATE): inactive; negative | mutagenic call (Test System: AMES SALMONELLA TYPHIMURIUM, Strain/Indicator: TA1535, Metabolic Activation: RAT LIVER S-9, PHENOBARBITAL AND 5,6-BENZOFLAVONE, Method: PREINCUBATION): inactive; negative | mutagenic call (Test System: AMES SALMONELLA TYPHIMURIUM, Strain/Indicator: TA1535, Metabolic Activation: RAT LIVER S-9, PHENOBARBITAL AND 5,6-BENZOFLAVONE, Method: STANDARD PLATE): inactive; negative | mutagenic call (Test System: AMES SALMONELLA TYPHIMURIUM, Strain/Indicator: TA1535, Metabolic Activation: RAT LIVER S-9, PHENOBARBITAL AND BETA-NAPHTHOFLAVONE (10%), Method: PREINCUBATION): inactive; negative

Source: PubChem BioAssay AID1259407 (Chemical Carcinogenesis Research Information System (CCRIS), 2018)
